Assay results as given in patent US4686230A, “Picoline derivative useful as gastric acid secretion inhibitors” (Byk Gulden Lomberg Chemische Fabrik GmbH, priority 1984, dated 1987).

Experiments:
[1] = test system: stomach lesions induced by pylorus ligature and oral administration of 100 mg/kg of acetylsalicylic acid; test: Protective action on the stomach (anti-ulcerogenic action), Shay rats: pylorus ligature + acetylsalicylic acid; type: in vivo; conditions: Rattus norvegicus, 1 h, orally, dose which reduces the mean lesion index by 50% vs control, given one hour before pylorus ligature, read-out: Protective action on the stomach (rats), inhibition of the lesion index, ED50
Procedure: (§1) The investigated compounds according to the invention have been given numbers as follows:
(§2) The effects of the investigated compounds on the formation of stomach lesions induced by pylorus ligature and oral administration of 100 mg/kg of acetylsalicylic acid and the gastric secretion (HCl) for 4 h in rats (so-called Shay rats) are shown in the table which follows.
(§3) + ED25 and ED50 = dose which reduces the lesion index and the HCl
(§4) secretion (Σ4 h) of the rat stomach in the treated group by 25 and
(§5) 50% respectively, as compared with the control group.
The anti-ulcerogenic action was tested by the method of so-called Shay rats:
The ulcers are provoked in rats (female, 180-200 g, 4 animals in each cage on a high grid) kept fasting for 24 hours by pylorus ligature (under diethyl ether anaesthesia) and oral administration of 100 mg/10 ml/kg of acetylsalicylic acid. The substances to be tested are administered orally (10 ml/kg) one hour before the pylorus ligature. The wounds are closed by means of Michel clamps. 4 hours later, the animals are killed under ether intoxication by atlas dislocation and the stomach is resected. The stomach is opened longitudinally and fixed on a cork plate, after first determining the quantity of the secreted gastric juice (volume) and later its HCl content (titration with sodium hydroxide solution); the number and size (=diameter) of existing ulcers was determined by means of a stereomicroscope at 10-fold magnification. The product of the degree of severity (according to the points rating below) and of the number of ulcers is used as the individual lesion index. […]
(§6) The reduction in the mean lesion index of each treated group as compared with that of the control group (=100%) is taken as the measure of the anti-ulcerogenic effect.

gastric secretion (HCl) = test: Inhibition of the HCl secretion of the stomach, Shay rats; type: in vivo, rat; conditions: total 4 h; for ED25 / ED50: Rattus norvegicus, po, orally; for ED25: dose which reduces HCl secretion by 25% vs control; for ED50: dose which reduces HCl secretion by 50% vs control; for % inhibition of the HCl secretion: after administration of the antiulcer ED50
Procedure: as §1, §2, §3, §4, §5
++ after administration of the antiulcer ED50
The ulcers are provoked in rats (female, 180-200 g, 4 animals in each cage on a high grid) kept fasting for 24 hours by pylorus ligature (under diethyl ether anaesthesia) and oral administration of 100 mg/10 ml/kg of acetylsalicylic acid. The substances to be tested are administered orally (10 ml/kg) one hour before the pylorus ligature. The wounds are closed by means of Michel clamps. 4 hours later, the animals are killed under ether intoxication by atlas dislocation and the stomach is resected. The stomach is opened longitudinally and fixed on a cork plate, after first determining the quantity of the secreted gastric juice (volume) and later its HCl content (titration with sodium hydroxide solution); the number and size (=diameter) of existing ulcers was determined by means of a stereomicroscope at 10-fold magnification. The product of the degree of severity (according to the points rating below) and of the number of ulcers is used as the individual lesion index.
as §6

Structure (SMILES) | ED50 [1] | ED25 (gastric secretion (HCl)) | ED50 (gastric secretion (HCl)) | % inhibition of the HCl secretion (gastric secretion (HCl))
COc1ccnc(C[S+]([O-])c2nc3c(C)c(OC(F)F)c(C)cc3[nH]2)c1C (stereo not shown) [Serial No. 1, 5-Difluoromethoxy-2-[(4-methoxy-3-methyl-2-pyridyl)methylsulphinyl]-4,6-dimethyl-1H-benzimidazole] | 0.5 mg/kg | 0.5 mg/kg | 1.1 mg/kg | 22%
COc1ccnc(C(C)[S+]([O-])c2nc3cc(OC(F)F)c(OC)cc3[nH]2)c1 (stereo not shown) [Serial No. 2, 5-Difluoromethoxy-6-methoxy-2-{[1-(4-methoxy-2-pyridyl)ethyl]sulphinyl}-1H-benzimidazole] | 0.6 mg/kg | ~1 mg/kg | ~2 mg/kg | ~ 20%
COc1ccnc(C(C)[S+]([O-])c2nc3cc(OC(F)(F)C(F)F)ccc3[nH]2)c1 (stereo not shown) [Serial No. 3, 5-(1,1,2,2-Tetrafluoroethoxy)-2-{[1-(4-methoxy-2-pyridyl)ethyl]sulphinyl}-1H-benzimidazole] | 0.5 mg/kg | 0.35 mg/kg | 0.8 mg/kg | 35%
COc1ccnc(C[S+]([O-])c2nc3c(C)c(OC(F)F)c(C)cc3[nH]2)c1OC (stereo not shown) [Serial No. 4, 5-Difluoromethoxy-2-[(3,4-dimethoxy-2-pyridyl)-methylsulphinyl]-4,6-dimethyl-1H-benzimidazole] | ~1 mg/kg | ~1.3 mg/kg | ~2 mg/kg | 10%
COc1ccnc(C[S+]([O-])c2nc3cc(OC(F)(F)C(F)Cl)ccc3[nH]2)c1 (stereo not shown) [Serial No. 6, 5-(2-Chloro-1,1,2-trifluoroethoxy)-2-[(4-methoxy-2-pyridyl)methylsulphinyl]-1H-benzimidazole] | 0.55 mg/kg | 0.55 mg/kg | 1.3 mg/kg | 25%
COc1ccnc(C(C)[S+]([O-])c2nc3cc(OC(F)(F)C(F)Cl)ccc3[nH]2)c1 (stereo not shown) [Serial No. 7] | 0.6 mg/kg | 0.4 mg/kg | 0.8 mg/kg | 40%
COc1ccnc(CSc2nc3c(C)c(OC(F)F)c(C)cc3[nH]2)c1C [Serial No. 8, 5-Difluoromethoxy-2-[(4-methoxy-3-methyl-2-pyridyl)methylthio]-4,6-dimethyl-1H-benzimidazole] | 0.7 mg/kg | 1 mg/kg | 1 mg/kg | 15%
COc1ccnc(C(C)Sc2nc3cc(OC(F)F)c(OC)cc3[nH]2)c1 (stereo not shown) [Serial No. 9, 5-Difluoromethoxy-6-methoxy-2-{[1-(4-methoxy-2-pyridyl)ethyl]thio}-1H-benzimidazole] | 1.7 mg/kg | < 1 mg/kg | ~4 mg/kg | 35%
COc1ccnc(C(C)[S+]([O-])c2nc3cc4c(cc3[nH]2)OC(F)(F)O4)c1 (stereo not shown) [compound 5] | 1 mg/kg | 1 mg/kg | 1.7 mg/kg | 25%
COc1ccnc(C[S+]([O-])c2nc3cc(OC(F)(F)C(F)Cl)ccc3[nH]2)c1C (stereo not shown) [compound 10] | 0.4 mg/kg | 0.4 mg/kg | 0.8 mg/kg | 27%
